Source: patent US20040152641A1, “Use of polymethoxylated flavones for treating insulin resistance” (priority 2001, published 2004)
pIC50: −log10 of the molar value. Converted amounts (≈) assume the structure as drawn.

Key:
[1] = molecular target: alpha-glucosidase Type 1 from bakers yeast (Saccharomyces cerevisiae, UniProt P53341); test: In vitro inhibition of alpha-glucosidase; assay type: biochemical; details: 30 min, 37° C., p-nitrophenyl-alpha-D-glucopyranoside
Method: For the assay, alpha-glucosidase Type 1 from bakers yeast was incubated for 30 min, at 37° C., in the presence of substrate (p-nitrophenyl-alpha-D-glucopyranoside) and in the presence vs. absence of citrus flavonoids or coumarins at concentrations ranging from 3 to 200 μg/mL (0.01 to 1.8 mM). The reaction was stopped by addition of 0.2 M Na2CO3 and absorbance was measured at 405 nm. Background absorbance (without enzyme) was subtracted for every flavonoid or coumarins concentration used. The inhibitory activity was expressed as percent control and IC50 values (concentrations of compounds required to inhibit alpha-glucosidase by 50%) were calculated.

[2] = test system: HepG2 cells; test: Medium apo B in HepG2 cells made insulin-resistant by long-term insulin incubation; assay type: cell-based, human; details: insulin plus 25 μg/mL tangeretin, 5 days, Elisa
Method: In the cell culture study, 80-90% confluent HepG2 cells were incubated for 5 days with the following media:
1. Minimum essential medium containing 1% bovine serum albumin (MEM+BSA)
2. The same medium containing […] bovine insulin
All media were changed on day 3 to maintain high concentration of insulin (which undergoes partial degradation after long-term incubation). After 5 days, media and cells were collected. Medium concentrations of apo B were measured by Elisa and expressed as μg per mg cell protein as described previously^8.

[3] = test system: human liver cell line HepG2; details: cited from earlier work
[4] = test system: hamsters with casein-induced hypercholesterolemia; details: 0.13-1.0% supplementation; cited from earlier work
[5] = test system: hamsters made insulin resistant by feeding 60% fructose diet; test: Hamsters made insulin resistant by 60% fructose diet, tangeretin supplementation, 2 weeks; details: for HDL cholesterol / Insulin / NEFA / NO2/NO3 / Triacylglycerols / VLDL + LDL cholesterol / Total cholesterol: serum, mean ± SD
Method: Diets were pair-fed to control for 2 weeks. After that time, fasting blood samples were collected by heart puncture for measurement of plasma lipids, glucose, NEFA, insulin and nitrites/nitrates (end products of nitric oxide metabolism). Total cholesterol in whole serum and in HDL fraction as well as total triglycerides and glucose were measured by enzymatic timed-endpoint methods, using the Beckman Coulter reagents and SYNCHRON™ LX System. VLDL+LDL cholesterol concentrations were calculated as a difference between total and HDL cholesterol. NEFA were determined enzymatically by NEFA C kit (Wako Chemicals USA Inc., Richmond, Va.). Serum insulin was measured using Rat Insulin RIA kit from Linco Research Inc. St. Charles, Mo. Serum nitrates/nitrites concentrations were determined using Nitrate/Nitrite Colorimetric Assay kit from Cayman Chemical Co., Ann Arbor, Mich.

[6] = test system: alpha-glucosidase; details: cited from earlier work

Sequence of alpha-glucosidase Type 1 from bakers yeast (P53341 whole entry): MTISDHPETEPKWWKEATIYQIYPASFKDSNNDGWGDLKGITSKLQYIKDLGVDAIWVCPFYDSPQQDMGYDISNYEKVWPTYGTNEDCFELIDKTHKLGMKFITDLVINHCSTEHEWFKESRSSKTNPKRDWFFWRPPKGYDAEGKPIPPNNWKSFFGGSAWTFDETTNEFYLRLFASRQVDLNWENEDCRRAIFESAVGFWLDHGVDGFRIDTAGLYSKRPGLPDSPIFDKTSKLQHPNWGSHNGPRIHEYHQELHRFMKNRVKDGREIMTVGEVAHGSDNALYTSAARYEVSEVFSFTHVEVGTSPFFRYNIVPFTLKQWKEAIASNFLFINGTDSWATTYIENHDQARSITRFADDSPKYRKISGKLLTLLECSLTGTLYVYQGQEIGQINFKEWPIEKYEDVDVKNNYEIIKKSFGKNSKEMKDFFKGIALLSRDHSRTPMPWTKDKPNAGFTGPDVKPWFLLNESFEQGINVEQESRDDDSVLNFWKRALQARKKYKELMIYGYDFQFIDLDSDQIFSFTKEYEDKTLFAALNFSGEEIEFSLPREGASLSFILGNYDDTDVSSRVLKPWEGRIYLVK

## COc1ccc(-c2oc3c(OC)c(OC)c(OC)c(OC)c3c(=O)c2OC)cc1OC [Heptamethoxyflavone]
[1]
  pIC50: 3.30
  IC50 alpha-glucosidase: 201.7 µg/mL (≈ 466 µM)

## COc1ccc(-c2cc(=O)c3c(OC)c(OC)c(OC)c(OC)c3o2)cc1 [Tangeretin, 5,6,7,8,4′-pentamethoxyflavone]
[2]
  medium apo B reduced, compared to insulin alone: 69%
[3]
  production of apolipoprotein B (apo B): substantially reduced
[4]
  serum content of triacylglycerols and cholesterol: significantly reduced
[5]; 0.25-1.0% tangeretin, pair-fed, 2 weeks
  growth rate and food consumption between the groups: no significant difference
[5]; +0.25% Tan vs fructose group
  % change HDL cholesterol: 0%
  % change Insulin: −13%
  % change NEFA: −23%
  % change Total cholesterol: −5%
  % change Triacylglycerols: −24%
[5]; +0.5% Tan vs fructose group
  % change HDL cholesterol: −17%
  % change Insulin: −13%
  % change NEFA: −22%
  % change Total cholesterol: −22%
  % change Triacylglycerols: −27%
[5]; +1.0% Tan vs fructose group
  % change HDL cholesterol: −27%
  % change Insulin: −20%
  % change NEFA: −18%
  % change NO2/NO3: +99%
  % change Total cholesterol: −20%
  % change Triacylglycerols: −32%
[5]; fructose +0.25% Tan
  HDL cholesterol: 2.55 ± 0.72 mmol/L
  Insulin: 735 ± 315 pmol/L
  NEFA: 1.48 ± 0.36 mEq/L
  NO2/NO3: 55.2 ± 18.8 µmol/L
  Triacylglycerols: 1.51 ± 0.56 mmol/L
  VLDL + LDL cholesterol: 0.62 ± 0.3 mmol/L
[5]; fructose +0.5% Tan
  HDL cholesterol: 1.93 ± 0.48 mmol/L
  Insulin: 729 ± 239 pmol/L
  NEFA: 1.50 ± 0.33 mEq/L
  NO2/NO3: 52.0 ± 18.5 µmol/L
  Total cholesterol: 2.61 ± 0.43 mmol/L
  Triacylglycerols: 1.45 ± 0.52 mmol/L
  VLDL + LDL cholesterol: 0.68 ± 0.28 mmol/L
[5]; fructose +1.0% Tan
  HDL cholesterol: 1.88 ± 0.26 mmol/L
  Insulin: 675 ± 296 pmol/L
  NEFA: 1.58 ± 0.32 mEq/L
  NO2/NO3: 106.3 ± 27.9 µmol/L
  Total cholesterol: 2.69 ± 0.23 mmol/L
  Triacylglycerols: 1.35 ± 0.57 mmol/L
  VLDL + LDL cholesterol: 0.81 ± 0.22 mmol/L
[5]; fructose with 1% tangeretin
  Serum nitrate/nitrite concentration: doubled
[5]; supplementation with tangeretin, fructose diet
  Serum glucose: not altered

## O=c1cc(-c2ccc(O)cc2)oc2cc(O)cc(O)c12 [apigenin]
[6]
  inhibition of alpha-glucosidase, previous studies: inhibition

## COc1ccc([C@@H]2CC(=O)c3c(O)cc(O[C@@H]4O[C@H](CO[C@@H]5O[C@@H](C)[C@H](O)[C@@H](O)[C@H]5O)[C@@H](O)[C@H](O)[C@H]4O)cc3O2)cc1O [hesperidin]
[6]
  inhibition of alpha-glucosidase, previous studies: lack of alpha-glucosidase inhibition

## O=c1cc(-c2ccc(O)c(O)c2)oc2cc(O)cc(O)c12 [luteolin]
[6]
  inhibition of alpha-glucosidase, previous studies: inhibition
